The source of these data is patent US8088886B2, “Lipoprotein associated phospholipase A2, inhibitors thereof and use of the same in diagnosis and therapy” (Smith-Kline Beecham P.L.C., priority 1993, dated 2012).

The target of the assay is T1, Lp-PLA2 (Homo sapiens, UniProt Q13093).
T1 construct: from tissue; host or cells: LDL from plasma (apheresis)
T1 sequence (Q13093 22-441): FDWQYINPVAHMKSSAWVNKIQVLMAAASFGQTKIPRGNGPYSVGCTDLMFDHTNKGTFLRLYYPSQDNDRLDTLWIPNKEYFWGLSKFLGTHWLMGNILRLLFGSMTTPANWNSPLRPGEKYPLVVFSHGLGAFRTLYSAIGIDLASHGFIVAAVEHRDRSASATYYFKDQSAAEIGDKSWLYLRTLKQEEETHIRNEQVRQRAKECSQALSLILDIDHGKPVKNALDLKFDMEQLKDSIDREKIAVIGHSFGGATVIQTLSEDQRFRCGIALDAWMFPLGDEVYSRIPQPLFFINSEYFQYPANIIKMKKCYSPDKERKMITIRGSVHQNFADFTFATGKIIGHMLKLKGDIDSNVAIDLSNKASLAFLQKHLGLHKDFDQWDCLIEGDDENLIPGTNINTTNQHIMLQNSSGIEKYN
The assay is described as follows: Screen for Lp-PLA2 inhibition (turnover of artificial substrate (A), absorbance at 405 nm). In kind it is biochemical. As to conditions: 37° C., pH 7.4, 10 min pre-incubation, 20 μM substrate (A). The procedure:
1. Screen for Lp-PLA2 Inhibition.
Enzyme activity was determined by measuring the rate of turnover of the artificial substrate (A) at 37° C. in 50 mM HEPES (N-2-hydroxyethylpiperazine-N′-2-ethanesulphonic acid) buffer containing 150 mM NaCl, pH 7.4.
Assays were performed in 96 well titre plates.
Lp-PLA2 was pre-incubated at 37° C. with vehicle or test compound for 10 min in a total volume of 180 μl. The reaction was then initiated by the addition of 20 μl 10× substrate (A) to give a final substrate concentration of 20 μM. The reaction was followed at 405 nm for 20 minutes using a plate reader with automatic mixing. The rate of reaction was measured as the rate of change of absorbance.

The structures appear in SMILES notation.

On to `CCCCCCCCCCCCCCCCOCC(COP(=O)([O-])OCC[N+](C)(C)C)NC(C)=O` (centres unmarked) [Compound 1], for which the IC50 was found to be 0.8 µM.
Under `CCCCCCCCCCCCCCCCCCOCC(COP(=O)([O-])OCC[N+](C)(C)C)NC(C)=O` (centres unmarked) [Compound 2] stands 3.5 µM; under `CCCCCCCCCCCCCCCCCCOCC(COP(=O)([O-])OCC[S+](C)C)NC(C)=O` (centres unmarked) [Compound 3], 1 µM; under `CCCCCCCCCCCCCCCCCCOCC(COP(=O)([O-])OCC[n+]1ccn(C)c1)NC(C)=O` (centres unmarked) [Compound 8], 0.55 µM.
The figure for `CCCCCCCCCCCCCCCCCCOCC(COP(=O)([O-])OCC[N+](C)(C)C)NC(=O)C(F)(F)F` (centres unmarked) [Compound 9] is 2.5 µM.

The IC50 is the midpoint of a concentration-inhibition curve. Higher therefore signals weaker potency in that assay.
